As a reminder, the melting point is the temperature of the solid-liquid transition. In turn, `C[C@H]1C/C=C/C(=O)O[C@@H](C)CC(=O)O[C@@H](C)C/C=C/C(=O)O1` [Example 1] displayed a melting point of 94 to 95 °C.

Values taken from US20060030720A1, “Method for synthesizing macrosphelides” (priority 2002, published 2006).
